The text below walks through data of paper PMC5700043, “Structural insights into substrate and inhibitor binding sites in human indoleamine 2,3-dioxygenase 1” (Nature Communications, 2017).

Assay [1] has as its target T1, human indoleamine 2,3-dioxygenase 1 (hIDO1) (Homo sapiens, UniProt P14902, F270G).
T1 construct: gene IDO1
Nature of the assay: X-ray crystal structure ([…] Å); activity titration (inhibition). It is filed as biochemical.

Assay [2] has as its target T2, human indoleamine 2,3-dioxygenase 1 (hIDO1) (Homo sapiens, UniProt P14902).
T2 construct: gene IDO1
As to the kind of experiment: X-ray crystal structure ([…] Å); activity titration. It is filed as biochemical.

In assay [3] the target is T1, human indoleamine 2,3-dioxygenase 1 (hIDO1). Nature of the assay: X-ray crystal structure ([…] Å), two Trp bound; steady-state activity. It is filed as binding.
Assay [4] has as its target T2, human indoleamine 2,3-dioxygenase 1 (hIDO1). As to the kind of experiment: X-ray crystal structure ([…] Å); steady-state activity. Type of assay: binding.

T1 sequence (P14902 11-403 F270G): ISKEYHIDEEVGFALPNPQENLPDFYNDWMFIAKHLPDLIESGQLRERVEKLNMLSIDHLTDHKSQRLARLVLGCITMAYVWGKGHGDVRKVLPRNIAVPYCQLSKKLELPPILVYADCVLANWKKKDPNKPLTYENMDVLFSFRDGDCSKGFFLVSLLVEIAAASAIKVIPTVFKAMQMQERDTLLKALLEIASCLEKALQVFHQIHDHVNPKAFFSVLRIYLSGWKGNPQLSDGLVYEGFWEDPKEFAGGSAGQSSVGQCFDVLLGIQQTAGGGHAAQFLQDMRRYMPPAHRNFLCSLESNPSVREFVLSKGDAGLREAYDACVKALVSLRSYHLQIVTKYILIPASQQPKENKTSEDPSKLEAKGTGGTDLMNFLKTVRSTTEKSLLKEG
T2 sequence (P14902 whole entry): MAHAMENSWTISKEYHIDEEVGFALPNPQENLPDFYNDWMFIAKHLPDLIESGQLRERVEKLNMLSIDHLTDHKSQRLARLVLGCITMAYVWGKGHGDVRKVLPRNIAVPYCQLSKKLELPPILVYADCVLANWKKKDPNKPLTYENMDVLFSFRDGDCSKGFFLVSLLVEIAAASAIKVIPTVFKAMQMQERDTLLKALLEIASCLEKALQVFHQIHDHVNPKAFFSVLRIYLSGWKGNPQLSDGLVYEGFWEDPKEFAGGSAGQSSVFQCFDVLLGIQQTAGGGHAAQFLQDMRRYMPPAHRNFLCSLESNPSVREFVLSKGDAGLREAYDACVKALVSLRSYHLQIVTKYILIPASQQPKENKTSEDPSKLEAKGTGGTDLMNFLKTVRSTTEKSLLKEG

With `OCCc1c[nH]c2ccccc12` [IDE, 3-indole ethanol], the Kd is approximately 100 µM in assay [1] and approximately 230 µM in assay [2].
As to `N[C@@H](Cc1c[nH]c2ccccc12)C(=O)O` [Trp], in assay [3], the “X-ray crystal structure (3.03 Å), two Trp bound; steady-state activity” value was “Crystal structure of the F270G-CN-Trp complex in a two Trp-bound state, where both the Sa and Si sites are occupied”. The “X-ray crystal structure (2.40 Å); steady-state activity” value in assay [4] is “The substrate Trp binds in the distal heme pocket, which is enclosed by the JK-Loop^C and the DE-Loop”.

Usually Kd stands for the free concentration of one partner at which half of the binding sites on the other are occupied at equilibrium, for simple one-to-one binding.
